Assay results published in ChEMBL document CHEMBL3217407, “Adamantane substituted aminocyclitols as pharmacological chaperones for Gaucher disease” (Medchemcomm, 2013).
Calls of active or inactive are those of the source. No cut-off for these calls is given here.

Assays:
[1] = target: Alpha-galactosidase (Coffea arabica) (UniProt Q42656); test: Inhibition of coffee beans alpha-galactosidase at 200 uM
[2] = target: T1, Lysosomal acid glucosylceramidase (Homo sapiens, UniProt P04062); test: Inhibition of human recombinant imiglucerase using 4-methylumbelliferyl-beta-D-glucopyranoside as substrate preincubated for 30 mins at pH 7 before substrate addition measured after 10 mins
T1 sequence (P04062 whole entry): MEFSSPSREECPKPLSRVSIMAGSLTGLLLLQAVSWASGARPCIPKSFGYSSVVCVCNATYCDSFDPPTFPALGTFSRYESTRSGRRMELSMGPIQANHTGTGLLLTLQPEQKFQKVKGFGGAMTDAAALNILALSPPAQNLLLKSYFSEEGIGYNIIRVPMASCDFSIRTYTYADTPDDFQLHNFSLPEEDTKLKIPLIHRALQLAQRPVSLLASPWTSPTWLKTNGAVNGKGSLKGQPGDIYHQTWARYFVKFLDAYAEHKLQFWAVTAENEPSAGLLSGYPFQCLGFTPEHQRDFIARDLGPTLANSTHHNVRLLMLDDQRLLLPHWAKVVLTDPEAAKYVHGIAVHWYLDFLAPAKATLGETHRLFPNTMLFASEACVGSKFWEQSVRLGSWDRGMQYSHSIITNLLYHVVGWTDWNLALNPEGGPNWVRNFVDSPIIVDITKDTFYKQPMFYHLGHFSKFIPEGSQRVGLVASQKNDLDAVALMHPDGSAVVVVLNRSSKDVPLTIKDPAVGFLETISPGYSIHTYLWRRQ

[3] = target: T2, Lysosomal acid glucosylceramidase (Homo sapiens) (UniProt P04062); test: Inhibition of imiglucerase in human fibroblasts using 4-methylumbelliferyl-beta-D-glucopyranoside as substrate at 200 uM after 24 hrs
T2 sequence (whole entry): T1 sequence (P04062 whole entry)

Saccharomyces cerevisiae = test: Inhibition of yeast alpha-glucosidase at 200 uM
[4] = target: T3, Beta-galactosidase (Bos taurus) (UniProt Q58D55); test: Inhibition of bovine liver beta-galactosidase at 200 uM
T3 sequence (whole entry): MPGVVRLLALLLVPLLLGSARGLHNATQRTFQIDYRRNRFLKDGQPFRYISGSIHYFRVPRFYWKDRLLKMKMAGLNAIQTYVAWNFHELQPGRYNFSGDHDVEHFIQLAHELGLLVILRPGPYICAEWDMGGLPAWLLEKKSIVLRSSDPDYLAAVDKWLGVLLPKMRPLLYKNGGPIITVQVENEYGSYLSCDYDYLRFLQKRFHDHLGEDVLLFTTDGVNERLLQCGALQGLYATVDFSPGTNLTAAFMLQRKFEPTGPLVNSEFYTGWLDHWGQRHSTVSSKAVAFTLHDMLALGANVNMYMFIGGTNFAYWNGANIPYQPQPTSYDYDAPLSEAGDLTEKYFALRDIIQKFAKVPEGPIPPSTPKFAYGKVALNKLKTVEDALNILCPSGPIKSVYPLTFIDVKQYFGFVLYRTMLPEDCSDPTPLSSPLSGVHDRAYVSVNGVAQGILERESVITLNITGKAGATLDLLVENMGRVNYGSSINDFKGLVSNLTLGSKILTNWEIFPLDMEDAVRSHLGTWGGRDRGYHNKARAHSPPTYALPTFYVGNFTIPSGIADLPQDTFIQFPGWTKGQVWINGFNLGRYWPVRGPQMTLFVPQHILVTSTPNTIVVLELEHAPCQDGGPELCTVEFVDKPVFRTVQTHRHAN

[5] = target: T1, Lysosomal acid glucosylceramidase; test: Competitive inhibition of human recombinant imiglucerase using 4-methylumbelliferyl-beta-D-glucopyranoside as substrate preincubated for 30 mins at pH 7 before substrate addition measured after 10 mins by Lineweaver-Burk or Dixon plot analysis
[6] = target: T2, Lysosomal acid glucosylceramidase (Homo sapiens); test: Ratio of IC50 for human recombinant imiglucerase at pH 5.2 to IC50 for human recombinant imiglucerase at pH 7
[7] = target: T1, Lysosomal acid glucosylceramidase; test: Competitive inhibition of human recombinant imiglucerase using 4-methylumbelliferyl-beta-D-glucopyranoside as substrate preincubated for 30 mins at pH 5.2 before substrate addition measured after 10 mins by Lineweaver-Burk or Dixon plot analysis
[8] = target: T1, Lysosomal acid glucosylceramidase; test: Inhibition of human recombinant imiglucerase using 4-methylumbelliferyl-beta-D-glucopyranoside as substrate preincubated for 30 mins at pH 5.2 before substrate addition measured after 10 mins
[9] = Cytotoxicity against human fibroblasts up to 300 uM after 24 hrs by MTT assay; type: cell-based; conditions: fibroblast
[10] = target: T2, Lysosomal acid glucosylceramidase (Homo sapiens); conditions: 50 uM
Description: Inhibition of imiglucerase in human fibroblasts using 4-methylumbelliferyl-beta-D-glucopyranoside as substrate at 50 uM after 24 hrs

Chain of Alpha-galactosidase (Coffea arabica) (Q42656 16-378 limits assumed): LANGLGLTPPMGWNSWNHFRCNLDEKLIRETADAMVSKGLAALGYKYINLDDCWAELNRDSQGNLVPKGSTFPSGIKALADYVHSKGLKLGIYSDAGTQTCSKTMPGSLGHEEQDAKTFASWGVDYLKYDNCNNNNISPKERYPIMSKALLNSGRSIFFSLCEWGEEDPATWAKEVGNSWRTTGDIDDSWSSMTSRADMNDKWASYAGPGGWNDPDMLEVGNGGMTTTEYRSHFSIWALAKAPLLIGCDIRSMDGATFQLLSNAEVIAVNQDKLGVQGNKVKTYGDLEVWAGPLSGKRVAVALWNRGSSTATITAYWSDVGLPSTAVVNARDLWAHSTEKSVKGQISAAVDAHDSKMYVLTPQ

| inhibition [1] | IC50 [2] | inhibition [3] | inhibition (Saccharomyces cerevisiae) | inhibition [4] | Ki [5] | Ratio IC50 [6] | Ki [7] | IC50 [8] | SMILES | Activity [9] | inhibition [10] |
| --- | --- | --- | --- | --- | --- | --- | --- | --- | --- | --- | --- |
| inactive | 58 µM | 0% | inactive | inactive | 45 µM | 4 | 183 µM | 257 µM | O=C(CCCN[C@H]1[C@H](O)[C@@H](O)[C@H](O)[C@@H](O)[C@@H]1O)NC12CC3CC(CC(C3)C1)C2 | Non-toxic |  |
| inactive | 0.37 µM | 1% | inactive | 24% | 0.25 µM | 12 | 2.9 µM | 5.4 µM | O=C(CCCN[C@@H]1[C@H](O)[C@H](O)[C@@H](O)[C@H](O)[C@H]1O)NC12CC3CC(CC(C3)C1)C2 | Non-toxic |  |
|  |  |  |  |  |  |  |  |  | CCCCCCCCCN[C@@H]1[C@H](O)[C@H](O)[C@@H](O)[C@H](O)[C@H]1O |  | 95% |
|  |  |  |  |  |  |  |  |  | CCCCCCCCCN[C@H]1[C@H](O)[C@@H](O)[C@H](O)[C@@H](O)[C@@H]1O |  | 29% |
